Laboratory results as given in patent US20090023773A1, “COMPOSITIONS AND METHODS FOR MODULATING GATED ION CHANNELS” (PainCeptor Pharma Corporation, priority 2007, published 2009).

Key:
[1] = biological target: T1, recombinant homomeric hASIC1a channels (Homo sapiens, UniProt P78348); assay: Two-electrode voltage clamp in Xenopus laevis oocytes expressing gated ion channels (Example 4); format: cell-based
T1 construct: expressed in transfected cells; host or cells: Xenopus laevis oocytes (nuclear microinjection of expression vector such as pcDNA3)
T1 sequence (P78348 1-528): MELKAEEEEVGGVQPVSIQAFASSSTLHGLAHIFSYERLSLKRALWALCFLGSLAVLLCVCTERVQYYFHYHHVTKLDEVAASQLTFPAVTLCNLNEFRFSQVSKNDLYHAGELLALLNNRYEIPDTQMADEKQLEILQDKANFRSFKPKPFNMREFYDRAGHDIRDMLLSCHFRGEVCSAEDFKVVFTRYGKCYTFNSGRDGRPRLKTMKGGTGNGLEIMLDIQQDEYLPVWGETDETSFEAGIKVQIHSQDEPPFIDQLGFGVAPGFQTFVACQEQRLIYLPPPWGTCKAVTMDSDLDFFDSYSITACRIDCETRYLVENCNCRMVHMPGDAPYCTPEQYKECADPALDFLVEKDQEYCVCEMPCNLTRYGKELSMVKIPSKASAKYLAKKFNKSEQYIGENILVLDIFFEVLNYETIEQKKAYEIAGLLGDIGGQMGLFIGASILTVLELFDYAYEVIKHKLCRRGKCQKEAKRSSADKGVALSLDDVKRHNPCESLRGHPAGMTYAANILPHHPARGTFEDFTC

[2] = biological target: T2, hASIC1a (Homo sapiens, UniProt P78348); assay: Fluorescent calcium dye (Fluo-4-NW) assay in cells expressing hASIC1a (Example 1); format: cell-based; settings: CHO cells stably expressing hASIC1a, mild acidic buffer, increasing concentrations; FIGS. 1A-1C
T2 construct: expressed in transfected cells
T2 sequence (P78348 1-528): T1 sequence (P78348 1-528)
Protocol: ASIC1a expressing CHO cells are grown in culture medium (DMEM with 10% FBS), in polystyrene culture flasks ([…]) at 37° C. in a humidified atmosphere of 5% CO2. Confluency of cells should be 70-90% on day of plating. Cells are rinsed with 10 ml of PBS and cells are re-suspended by addition of culture medium and trituration with a 25 ml pipette. The cells are seeded at a density of approximately 10^4 cells/ml (50 μl/well and then brought to a total volume of 150 μl/well with culture medium, following 30 minutes incubation) in black-walled, clear bottom, 96-well plates pre-treated with poly-D-lysine (from BD Bioscience). Plated cells were allowed to proliferate for 48-72 h before loading with dye. Fluo-4-NW (500 μg, DiscoveRX) is dissolved in 110 μl DMSO. The Fluo-4-NW stock solution (1000×) is diluted with the assay buffer. A water soluble stock solution (100×) of probenicid (DiscoveRX) and a stock solution (1000×) of pluronic acid (P-127, Molecular Probes) are also added in the loading buffer containing Fluo-4NW dye. The culture medium is aspirated from the wells, and 100 μl of the Fluo-4-NW loading solution is added to each well. The cells are incubated at 37° C. for 30 min. followed by 30 min. incubation at room temperature. The assay buffer contains 90 mM NaCl, 5 mM KCl, 4 mM CaCl2, 0.8 mM MgSO4, 50 mM NMDG, 5 mM Glucose-D, 10 mM HEPES, pH 7.4. After the loading time, the loading buffer is not removed and the fluorescence is measured in FlexStation™ (Molecular Devices, USA), or any other suitable equipment known to the skilled in the art. Temperature: 25° C. First addition: 50 μl test solution at a rate of 26 μl/sec and a starting height of 125 μl. […] Reading intervals: pre-incubation—120 sec. antagonist phase, addition of MES at 145 sec. and reading time with agonist 100 sec (total run time of 240 sec.). Fluorescence obtained after stimulation is corrected for the mean basal fluorescence (in modified Assay Buffer). […] Gated-channel activity was determined by measuring intracellular calcium variation using a fluorescent calcium dye (Fluo-4-NW).

[3] = test system: chemically-induced spontaneous pain evoked by intraplantar injection of formalin; assay: Formalin test, model of acute tonic pain (Example 7); format: in vivo; settings: rat, 1 min prior to formalin
Protocol: Male Sprague-Dawley rats are housed together in groups of three animals under standard conditions with unrestricted access to food and water. All experiments are conducted according to the ethical guidelines for investigations of experimental pain in conscious animals (Zimmerman, 1983).
Assessment of formalin-induced flinching behavior in normal, uninjured rats (body weight 200-300 g) is made after formalin (2.5% in saline, 50-100 μl, s.c.) is injected into the plantar surface of the hindpaw using a 27 G needle. Rats are pretreated with test compounds either administered intravenously (IV), by subcutaneous injection (SC) or by orally (PO).
Nociceptive behavior is determined manually every 5 min by measuring the amount of time spent in each of four behavioral categories: 0, treatment of the injected hindpaw is indistinguishable from that of the contralateral paw; 1, the injected paw has little or no weight placed on it; 2, the injected paw is elevated and is not in contact with any surface; 3, the injected paw is licked, bitten, or shaken. A weighted nociceptive score, ranging from 0 to 3 is calculated by multiplying the time spent in each category by the category weight, summing these products, and dividing by the total time for each 5 min block of time. (Coderre et al., Pain 1993; 54: 43). On the basis of the resulting response patterns, […] of nociceptive behavior are identified and scored: first phase (P1; 0-5 min), interphase (Int; 6-15 min), second phase (P2; […]), phase 2A (P2A; 16-40 min) and phase 2B (P2B; 41-60 min).
Statistical analysis is performed using the Prism™ 4.01 software package (GraphPad, San Diego, Calif., USA). The difference in response levels between treatment groups and control vehicle group is analyzed using an ANOVA followed by Bonferroni's method for post-hoc pair-wise comparisons. A p value <0.05 is considered to be significant.

IC50 ([1]; Table 1, generated using oocytes as in Example 4): 0.1 to 10 µM
reduction in the current evoked by a mild pH stimulation ([1]; acid-induced inward currents in oocytes injected with hASIC1a cDNA, FIGS. 2A-2C): clear dose-dependent reduction
inhibition of acid-induced hASIC1a activity (intracellular calcium variation) [2]: dose-dependently inhibited
Structure (SMILES): Cc1cc(OC2CCN(Cc3ccccc3)CC2)c2cc(O)ccc2n1 [Compound 13, 4-(1-benzylpiperidin-4-yloxy)-2-methylquinolin-6-ol]
pain intensity as evaluated by the licking behavior ([3]; SC, 2.5, 7.5, 25 and 75 mg/kg, FIG. 5A): dose-dependent reduction
ED50 ([3]; SC, FIG. 5B, read-out: ED50 (number of licking and biting episodes in phase IIa of the formalin test)): ~6 mg/kg
